Reference: patent US20190330275A1 (priority 2016, published 2019)
pIC50: −log10 of the molar value. Peptide text beside a SMILES is read from it.

Experiments:
rat α6/α3β4 nAChR = rat α6/α3β4 nAChR (Rattus norvegicus, UniProt P04757+P12392+P43143); assay: cell-based
rat α3β4 nAChR = rat α3β4 nAChR (Rattus norvegicus, UniProt P04757+P12392); assay: cell-based; conditions: for pIC50: α3β4 IC50 (half-blocking dose)
[1] = α6/α3β4 IC50 (half-blocking dose)

rat α6/α3β4 nAChR, sequence (P04757 whole entry, looked up): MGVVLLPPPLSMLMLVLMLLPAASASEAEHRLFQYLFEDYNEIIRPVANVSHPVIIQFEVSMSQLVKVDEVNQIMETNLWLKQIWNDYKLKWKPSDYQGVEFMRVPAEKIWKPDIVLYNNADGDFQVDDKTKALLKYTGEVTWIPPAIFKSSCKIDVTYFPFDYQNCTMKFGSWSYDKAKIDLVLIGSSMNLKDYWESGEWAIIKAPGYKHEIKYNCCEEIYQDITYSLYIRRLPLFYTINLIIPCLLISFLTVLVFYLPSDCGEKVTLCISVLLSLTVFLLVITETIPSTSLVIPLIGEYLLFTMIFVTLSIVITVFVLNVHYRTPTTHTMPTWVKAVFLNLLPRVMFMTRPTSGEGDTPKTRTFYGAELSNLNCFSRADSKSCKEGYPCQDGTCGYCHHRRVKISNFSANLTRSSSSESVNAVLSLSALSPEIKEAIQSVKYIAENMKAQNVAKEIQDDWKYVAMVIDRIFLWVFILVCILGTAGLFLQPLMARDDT
rat α6/α3β4 nAChR, sequence (P12392 whole entry, looked up): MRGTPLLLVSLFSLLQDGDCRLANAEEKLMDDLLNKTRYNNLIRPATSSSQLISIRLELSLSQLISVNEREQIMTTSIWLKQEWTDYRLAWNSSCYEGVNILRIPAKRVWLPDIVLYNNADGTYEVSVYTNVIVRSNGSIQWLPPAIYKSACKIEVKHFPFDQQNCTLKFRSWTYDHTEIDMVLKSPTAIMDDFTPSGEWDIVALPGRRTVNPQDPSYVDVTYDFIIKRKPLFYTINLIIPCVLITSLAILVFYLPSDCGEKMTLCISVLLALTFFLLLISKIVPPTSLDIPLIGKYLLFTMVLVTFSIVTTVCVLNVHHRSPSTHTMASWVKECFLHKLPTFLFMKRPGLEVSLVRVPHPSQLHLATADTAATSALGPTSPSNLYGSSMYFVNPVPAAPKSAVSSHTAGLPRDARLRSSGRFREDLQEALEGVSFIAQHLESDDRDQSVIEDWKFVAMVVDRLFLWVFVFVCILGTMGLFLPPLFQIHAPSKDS
rat α6/α3β4 nAChR, sequence (P43143 whole entry, looked up): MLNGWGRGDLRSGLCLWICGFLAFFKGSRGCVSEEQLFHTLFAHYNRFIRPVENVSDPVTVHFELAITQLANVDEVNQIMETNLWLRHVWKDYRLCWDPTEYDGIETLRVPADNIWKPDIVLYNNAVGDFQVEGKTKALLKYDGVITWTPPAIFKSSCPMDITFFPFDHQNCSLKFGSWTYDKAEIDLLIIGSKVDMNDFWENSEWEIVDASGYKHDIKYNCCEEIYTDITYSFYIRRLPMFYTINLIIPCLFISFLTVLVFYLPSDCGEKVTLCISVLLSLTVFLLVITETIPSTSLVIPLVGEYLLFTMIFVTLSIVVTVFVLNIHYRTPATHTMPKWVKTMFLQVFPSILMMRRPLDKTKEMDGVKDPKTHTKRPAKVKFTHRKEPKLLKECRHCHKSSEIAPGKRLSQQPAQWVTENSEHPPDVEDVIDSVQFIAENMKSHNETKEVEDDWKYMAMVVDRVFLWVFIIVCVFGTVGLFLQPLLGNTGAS
rat α3β4 nAChR, sequence (P04757 26-499 limits assumed): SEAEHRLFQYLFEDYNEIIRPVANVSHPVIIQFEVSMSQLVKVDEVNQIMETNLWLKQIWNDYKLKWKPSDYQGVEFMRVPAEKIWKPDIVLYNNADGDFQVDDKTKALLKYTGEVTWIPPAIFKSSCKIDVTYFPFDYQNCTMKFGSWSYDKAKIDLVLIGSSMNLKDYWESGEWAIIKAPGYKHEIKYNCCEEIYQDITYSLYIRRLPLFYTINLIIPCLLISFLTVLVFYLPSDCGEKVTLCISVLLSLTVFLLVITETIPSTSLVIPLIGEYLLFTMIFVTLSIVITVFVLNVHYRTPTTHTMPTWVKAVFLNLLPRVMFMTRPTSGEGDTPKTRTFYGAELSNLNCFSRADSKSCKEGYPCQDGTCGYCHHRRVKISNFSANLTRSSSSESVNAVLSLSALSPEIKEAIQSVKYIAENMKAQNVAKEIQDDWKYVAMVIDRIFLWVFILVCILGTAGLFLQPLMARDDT
rat α3β4 nAChR, sequence (P12392 21-495 limits assumed): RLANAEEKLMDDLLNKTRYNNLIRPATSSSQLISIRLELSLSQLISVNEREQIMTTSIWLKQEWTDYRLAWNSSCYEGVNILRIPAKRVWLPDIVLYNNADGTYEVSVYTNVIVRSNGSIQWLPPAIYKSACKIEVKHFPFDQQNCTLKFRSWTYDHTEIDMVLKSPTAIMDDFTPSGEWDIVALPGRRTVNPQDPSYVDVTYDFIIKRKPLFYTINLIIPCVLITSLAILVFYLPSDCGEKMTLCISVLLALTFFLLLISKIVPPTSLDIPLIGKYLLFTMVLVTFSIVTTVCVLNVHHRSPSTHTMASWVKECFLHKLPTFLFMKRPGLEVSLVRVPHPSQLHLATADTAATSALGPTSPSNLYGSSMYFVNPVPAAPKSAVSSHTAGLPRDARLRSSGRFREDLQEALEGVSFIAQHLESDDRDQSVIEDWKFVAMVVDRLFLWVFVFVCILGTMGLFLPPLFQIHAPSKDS

SMILES	α3β4 IC50 ratio (rat α3β4 nAChR)	pIC50 (rat α3β4 nAChR)	IC50 ratio of α6/α3β4 vs. α3β4 (Discrimination) (rat α6/α3β4 nAChR)	α6/α3β4 IC50 ratio (rat α6/α3β4 nAChR)	pIC50 (rat α6/α3β4 nAChR; [1])	other results
CC[C@H](C)[C@@H]1NC(=O)[C@@H]2CCCN2C(=O)[C@H](CO)NC(=O)[C@H](CCSC)NC(=O)[C@H](C)NC(=O)[C@H](CC(=O)O)NC(=O)[C@@H]2CSSC[C@H](NC(=O)CN)C(=O)N[C@@H](CSSC[C@@H](C(N)=O)NC1=O)C(=O)N[C@@H](CO)C(=O)N[C@@H](Cc1c[nH]cn1)C(=O)N1CCC[C@H]1C(=O)N[C@@H](C(C)C)C(=O)N2 [TxID[S9D]] (HELM PEPTIDE1{G.C.C.S.H.P.V.C.D.A.M.S.P.I.C.[am]}$PEPTIDE1,PEPTIDE1,2:R3-8:R3|PEPTIDE1,PEPTIDE1,3:R3-15:R3$$$V2.0)						blocking effect on the current of rat α6/α3β4 nAChRs (rat α6/α3β4 nAChR): no blocking effect
CSCC[C@@H]1NC(=O)[C@H](C)NC(=O)[C@H](CO)NC(=O)[C@@H]2CSSC[C@H](NC(=O)CN)C(=O)N[C@@H](CSSC[C@@H](C(N)=O)NC(=O)[C@H](CC(=O)O)NC(=O)[C@@H]3CCCN3C(=O)[C@H](CO)NC1=O)C(=O)N[C@@H](CO)C(=O)N[C@@H](Cc1c[nH]cn1)C(=O)N1CCC[C@H]1C(=O)N[C@@H](C(C)C)C(=O)N2 [TxID[I14D]] (HELM PEPTIDE1{G.C.C.S.H.P.V.C.S.A.M.S.P.D.C.[am]}$PEPTIDE1,PEPTIDE1,2:R3-8:R3|PEPTIDE1,PEPTIDE1,3:R3-15:R3$$$V2.0)	2.7	8.01	4.2	1.2	7.39	
CC[C@H](C)[C@@H]1NC(=O)[C@@H]2CCCN2C(=O)[C@H](CO)NC(=O)[C@H](CCSC)NC(=O)[C@H](C)NC(=O)[C@H](CO)NC(=O)[C@@H]2CSSC[C@H](NC(=O)CN)C(=O)N[C@@H](CSSC[C@@H](C(N)=O)NC1=O)C(=O)N[C@@H](CO)C(=O)N[C@@H](Cc1c[nH]cn1)C(=O)N[C@@H](C)C(=O)N[C@@H](C(C)C)C(=O)N2 [TxID[P6A]] (HELM PEPTIDE1{G.C.C.S.H.A.V.C.S.A.M.S.P.I.C.[am]}$PEPTIDE1,PEPTIDE1,2:R3-8:R3|PEPTIDE1,PEPTIDE1,3:R3-15:R3$$$V2.0)		< 5.00			< 5.00	
CSCC[C@@H]1NC(=O)[C@H](C)NC(=O)[C@H](CO)NC(=O)[C@@H]2CSSC[C@H](NC(=O)CN)C(=O)N[C@@H](CSSC[C@@H](C(N)=O)NC(=O)[C@H](CCCNC(=N)N)NC(=O)[C@@H]3CCCN3C(=O)[C@H](CO)NC1=O)C(=O)N[C@@H](CO)C(=O)N[C@@H](Cc1c[nH]cn1)C(=O)N1CCC[C@H]1C(=O)N[C@@H](C(C)C)C(=O)N2 [TxID[I14R]] (HELM PEPTIDE1{G.C.C.S.H.P.V.C.S.A.M.S.P.R.C.[am]}$PEPTIDE1,PEPTIDE1,2:R3-8:R3|PEPTIDE1,PEPTIDE1,3:R3-15:R3$$$V2.0)	2.5	8.04	7.3	2.0	7.17	
CC[C@H](C)[C@@H]1NC(=O)[C@@H]2CCCN2C(=O)[C@H](CO)NC(=O)[C@H](CCSC)NC(=O)[C@H](C)NC(=O)[C@H](C)NC(=O)[C@@H]2CSSC[C@H](NC(=O)CN)C(=O)N[C@@H](CSSC[C@@H](C(N)=O)NC1=O)C(=O)N[C@@H](CO)C(=O)N[C@@H](Cc1c[nH]c3ccccc13)C(=O)N1CCC[C@H]1C(=O)N[C@@H](C(C)C)C(=O)N2 [TxID[H5W, S9A]] (HELM PEPTIDE1{G.C.C.S.W.P.V.C.A.A.M.S.P.I.C.[am]}$PEPTIDE1,PEPTIDE1,2:R3-8:R3|PEPTIDE1,PEPTIDE1,3:R3-15:R3$$$V2.0)		< 5.00			< 5.00	
CC[C@H](C)[C@@H]1NC(=O)[C@@H]2CCCN2C(=O)[C@H](CO)NC(=O)[C@H](CCSC)NC(=O)[C@H](C)NC(=O)[C@H](Cc2c[nH]cn2)NC(=O)[C@@H]2CSSC[C@H](NC(=O)CN)C(=O)N[C@@H](CSSC[C@@H](C(N)=O)NC1=O)C(=O)N[C@@H](CO)C(=O)N[C@@H](Cc1c[nH]cn1)C(=O)N1CCC[C@H]1C(=O)N[C@@H](C(C)C)C(=O)N2 [TxID[S9H]] (HELM PEPTIDE1{G.C.C.S.H.P.V.C.H.A.M.S.P.I.C.[am]}$PEPTIDE1,PEPTIDE1,2:R3-8:R3|PEPTIDE1,PEPTIDE1,3:R3-15:R3$$$V2.0)	0.7		5.6	0.4		binding (blocking) activity to α3β4 nAChR compared with wild type TxID (rat α3β4 nAChR): not significantly different from the activity of the wild type TxID; blocking of rat α3β4 nAChRs current (rat α3β4 nAChR): strong blocking activities; current after 2 min of elution (rat α3β4 nAChR): ~0 nA; elution after blocking the α3β4 nAChR current (rat α3β4 nAChR): very slow; binding (blocking) activity to α6/α3β4 nAChR compared with wild type TxID (rat α6/α3β4 nAChR): not significantly different from the activity of the wild type TxID
CC[C@H](C)[C@@H]1NC(=O)[C@@H]2CCCN2C(=O)[C@H](CO)NC(=O)[C@H](CCSC)NC(=O)[C@H](C)NC(=O)[C@H](CO)NC(=O)[C@@H]2CSSC[C@H](NC(=O)CN)C(=O)N[C@@H](CSSC[C@@H](C(N)=O)NC1=O)C(=O)N[C@@H](CO)C(=O)N[C@@H](C)C(=O)N1CCC[C@H]1C(=O)N[C@@H](C(C)C)C(=O)N2 [TxID[H5A]] (HELM PEPTIDE1{G.C.C.S.A.P.V.C.S.A.M.S.P.I.C.[am]}$PEPTIDE1,PEPTIDE1,2:R3-8:R3|PEPTIDE1,PEPTIDE1,3:R3-15:R3$$$V2.0)		< 5.00			< 5.00	
CC[C@H](C)[C@@H]1NC(=O)[C@H](CC(=O)O)NC(=O)[C@@H]2CCCN2C(=O)[C@H](CO)NC(=O)[C@H](CCSC)NC(=O)[C@H](C)NC(=O)[C@H](CO)NC(=O)[C@@H]2CSSC[C@H](NC(=O)CN)C(=O)N[C@@H](CSSC[C@@H](C(N)=O)NC1=O)C(=O)N[C@@H](CO)C(=O)N[C@@H](Cc1c[nH]cn1)C(=O)N1CCC[C@H]1C(=O)N[C@@H](C(C)C)C(=O)N2 [TxID[14D]] (HELM PEPTIDE1{G.C.C.S.H.P.V.C.S.A.M.S.P.D.I.C.[am]}$PEPTIDE1,PEPTIDE1,2:R3-8:R3|PEPTIDE1,PEPTIDE1,3:R3-16:R3$$$V2.0)	14.1	7.30	44.7	66.6	5.65	pIC50 (rat α6/α3β4 nAChR; α6/α3β4 IC50): 5.00 to 6.00
CC[C@H](C)[C@@H]1NC(=O)[C@@H]2CCCN2C(=O)[C@H](CO)NC(=O)[C@H](CCSC)NC(=O)[C@H](C)NC(=O)[C@H](CO)NC(=O)[C@@H]2CSSC[C@H](NC(=O)CN)C(=O)N[C@@H](CSSC[C@@H](C(N)=O)NC1=O)C(=O)N[C@@H](CO)C(=O)N[C@@H](Cc1c[nH]cn1)C(=O)N1CCC[C@H]1C(=O)N[C@@H](C)C(=O)N2 [TxID[V7A]] (HELM PEPTIDE1{G.C.C.S.H.P.A.C.S.A.M.S.P.I.C.[am]}$PEPTIDE1,PEPTIDE1,2:R3-8:R3|PEPTIDE1,PEPTIDE1,3:R3-15:R3$$$V2.0)		< 5.00			< 5.00	
CC[C@H](C)[C@@H]1NC(=O)[C@@H]2CCCN2C(=O)[C@H](CO)NC(=O)[C@H](CCSC)NC(=O)[C@H](C)NC(=O)[C@H](CO)NC(=O)[C@H](CCCNC(=N)N)NC(=O)[C@@H]2CSSC[C@H](NC(=O)CN)C(=O)N[C@@H](CSSC[C@@H](C(N)=O)NC1=O)C(=O)N[C@@H](CO)C(=O)N[C@@H](Cc1c[nH]cn1)C(=O)N1CCC[C@H]1C(=O)N[C@@H](C(C)C)C(=O)N2 [TxID[9R]] (HELM PEPTIDE1{G.C.C.S.H.P.V.C.R.S.A.M.S.P.I.C.[am]}$PEPTIDE1,PEPTIDE1,2:R3-8:R3|PEPTIDE1,PEPTIDE1,3:R3-16:R3$$$V2.0)		< 5.00			< 5.00	
CC[C@H](C)[C@@H]1NC(=O)[C@@H]2CCCN2C(=O)[C@H](CO)NC(=O)[C@H](Cc2c[nH]cn2)NC(=O)[C@H](C)NC(=O)[C@H](CO)NC(=O)[C@@H]2CSSC[C@H](NC(=O)CN)C(=O)N[C@@H](CSSC[C@@H](C(N)=O)NC1=O)C(=O)N[C@@H](CO)C(=O)N[C@@H](Cc1c[nH]cn1)C(=O)N1CCC[C@H]1C(=O)N[C@@H](C(C)C)C(=O)N2 [TxID[M11H]] (HELM PEPTIDE1{G.C.C.S.H.P.V.C.S.A.H.S.P.I.C.[am]}$PEPTIDE1,PEPTIDE1,2:R3-8:R3|PEPTIDE1,PEPTIDE1,3:R3-15:R3$$$V2.0)		< 5.00		103	5.46	blocking effect on the current of rat α3β4 nAChRs (rat α3β4 nAChR): no blocking effects; pIC50 (rat α6/α3β4 nAChR; α6/α3β4 IC50): 5.00 to 6.00
CSCC[C@@H]1NC(=O)[C@H](C)NC(=O)[C@H](CO)NC(=O)[C@@H]2CSSC[C@H](NC(=O)CN)C(=O)N[C@@H](CSSC[C@@H](C(N)=O)NC(=O)[C@H](C)NC(=O)[C@@H]3CCCN3C(=O)[C@H](CO)NC1=O)C(=O)N[C@@H](CO)C(=O)N[C@@H](Cc1c[nH]cn1)C(=O)N1CCC[C@H]1C(=O)N[C@@H](C(C)C)C(=O)N2 [TxID[I14A]] (HELM PEPTIDE1{G.C.C.S.H.P.V.C.S.A.M.S.P.A.C.[am]}$PEPTIDE1,PEPTIDE1,2:R3-8:R3|PEPTIDE1,PEPTIDE1,3:R3-15:R3$$$V2.0)	4.4	7.79	2.8	1.3	7.34	
CC[C@H](C)[C@@H]1NC(=O)[C@@H]2CCCN2C(=O)[C@H](CO)NC(=O)[C@H](CCSC)NC(=O)[C@H](C)NC(=O)[C@H](CO)NC(=O)[C@@H]2CSSC[C@H](NC(=O)[C@H](C)N)C(=O)N[C@@H](CSSC[C@@H](C(N)=O)NC1=O)C(=O)N[C@@H](CO)C(=O)N[C@@H](Cc1c[nH]cn1)C(=O)N1CCC[C@H]1C(=O)N[C@@H](C(C)C)C(=O)N2 [TxID[G1A]] (HELM PEPTIDE1{A.C.C.S.H.P.V.C.S.A.M.S.P.I.C.[am]}$PEPTIDE1,PEPTIDE1,2:R3-8:R3|PEPTIDE1,PEPTIDE1,3:R3-15:R3$$$V2.0)					6.00 to 7.00	
CC[C@H](C)[C@@H]1NC(=O)[C@H](C)NC(=O)[C@H](CO)NC(=O)[C@@H]2CSSC[C@H](NC(=O)CN)C(=O)N[C@@H](CSSC[C@@H](C(N)=O)NC(=O)[C@H]([C@@H](C)CC)NC(=O)[C@@H]3CCCN3C(=O)[C@H](CO)NC1=O)C(=O)N[C@@H](CO)C(=O)N[C@@H](Cc1c[nH]cn1)C(=O)N1CCC[C@H]1C(=O)N[C@@H](C(C)C)C(=O)N2 [TxID[M11I]] (HELM PEPTIDE1{G.C.C.S.H.P.V.C.S.A.I.S.P.I.C.[am]}$PEPTIDE1,PEPTIDE1,2:R3-8:R3|PEPTIDE1,PEPTIDE1,3:R3-15:R3$$$V2.0)						binding (blocking) activity to α6/α3β4 nAChR compared with wild type TxID (rat α6/α3β4 nAChR): not a decrease
